Test results: US20230029496A1, “AMINO ACID ALTERNATIVE CURING SYSTEM” (THE TEXAS A&M UNIVERSITY SYSTEM, priority 2019, published 2023)
Several values for one entry are separate records, joined by “and”; a condition that tells them apart may be missing. Identical values can stand only once. Marks after values point to notes of the source that are not given here.

What was measured:
[1] = system: Nitric Oxide Synthase (NOS) system; experiment: Residual nitrite in plastic casing test tube ground pork loin sausages (Example 10); conditions: for Nitrite Pellet / Nitrite Supernatant: cooked
Description: The desired cured color could not initially be generated in a variety of processed meat products in a pilot plant setting. […] Pork loins (N=2) procured from a local meat distributor (Mar. 18, 2019) were used. Eight pounds of pork loins were ground (½″ then ¼″ plate) and weighed out in one pound portions. Plastic waterproof casings (2″ diameter) were clipped at one end. One pound of ground pork loin was placed in the casing and two pounds of brine (L-arginine concentration 7498 ppm) were added and the open end of the casing clipped. Based on laboratory test tube studies, meat samples would absorb 20-25% of the solution which equates to absorption of approximately 1500 ppm of L-arginine. Each plastic casing contained the same proportion of meat and brine as conducted during previous laboratory experiments (Table 12). A control was manufactured by substituting distilled water for the L-arginine brine.
After thermal processing the plastic casing test tubes were cut open and emptied into beakers, then separated into residue (meat particles) and supernatant (liquid) via paper filtration into 50 mL conical tubes for collection and subsequent analysis for residual nitrite (supernatant) and cured pigment formation/nitrosylation (meat residue).
Nitrosylation and residual nitrite analyses was performed under reduced light to avoid loss of pigmentation. L-arginine treated test tube pork sausage averaged 53.12 to 72.30 ppm of residual nitrite in the cooked meat pellet with percent nitrosylation ranging from 33 to 60 percent (Table 13). The brine was formulated to deliver 1500 ppm ingoing L-arginine at 25% absorption into the meat after two hours of immersion in the brine solution.

NOS system = experiment: NO-heme, total heme, nitrosylation and cured color in test tube pork loin sausages (Example 11)
From the text: Pork loins from a local meat distributor were procured on Mar. 18, 2019 and tested four weeks later on Apr. 18, 2019. A total of nine pounds of pork loins were split into thirds and ground through kidney, ½″, and ¼″ plates to make a restructured ham sausages formulated (Table 14) to contain either 1000 or 5000 ppm L-arginine which were stuffed in 2″ plastic casings and thermally processed. Three pounds of each grind size (9 pound batch) were mixed with high (5000 ppm), low (1000 ppm), or control (0 ppm) concentrations of brine at 25% addition using a Kitchen aid mixer. It was decided to lower the concentration of the L-arginine from 1500 ppm (Test 3) to 1000 ppm (Test 4) to verify that this concentration can generate acceptable levels of NO to develop cured color and residual nitrite for antioxidant and antimicrobial properties. Control and treatment met batches were stuffed in plastic casings in triplicate for each high, low, and control concentrations in one pound portions. […] The samples were tested for residual nitrite and nitroso-hemochromagen pigment (Table 14) one day after thermal processing cooking (April 19th to April 20th), then eight days after thermal processing on April 26th to determine any cure color fading and residual nitrite.

[2] = system: Nitric Oxide Synthase (NOS) system; experiment: Residual nitrite in pre-rigor pork semimembranosus muscle immersed in L-arginine (first study); type: biochemical
Description: Pre-rigor pork Semimembranosus muscle samples were collected from four pre-rigor pork carcasses (n=4) harvested at the Rosenthal Meat Science and Technology Center at Texas A&M University at six separate times over a four day period (N=24). Muscle samples were treated with five concentrations of L-arginine, using water as the control treatment. Samples were either subjected to heat treatment (water bath increasing to 62° C. for 60 min) or left raw/fresh (uncooked). All treated muscle samples were analyzed for residual nitrite, and cooked samples were analyzed for nitrosylhemochromagen levels to determine curing efficiency.
Solutions were prepared according to Wu to stabilize the muscle samples for enclosed reactions within the 50 mL conical tubes. […] The NaCl was used to stabilize any reaction and the NaE was used to accelerate any cure reaction that could occur. The L-arginine was prepared separately so as to be administered in specific concentration once the five grams of meat was added to the reaction tubes by creating dilutions of millimolar concentrations at 0 mM, 2 mM, 4 mM, 8 mM, 16 mM, and 32 mM.
The procedures for determining the following sample reactions followed the procedures outlined by Wu 24 5 g muscle samples were individually placed into 50 mL conical tubes.
Residual nitrite was determined using the modified AOAC Official Method 973.31 (Nitrite Analysis in Cured Meats Procedure) and was verified by Wu with sample (plasma or serum) preparation for amino acid analysis by HPLC and determination of nitrite (UV/VIS Spectrophotometric Method). This procedure was used to determine any residual nitrite found in samples. All samples were tested three weeks after being held in a −30° C. freezer then thawed in a 0° C. cooler.
Procedure: • 1. Weigh 5 g (±0.01) of finely comminuted and thoroughly mixed sample into a 100 ml beaker. • 2. Add approximately 40 ml distilled water and heat to 80° C. Use a glass rod to break up all lumps and mix thoroughly. • 3. Transfer the heated solution to a 500 ml volumetric flask. Quantitatively wash the beaker and rod with successive portions of the hot distilled water, adding all washings to the flask (approximately 300 ml). • 4. Transfer the flask to a steam bath (˜100° C.) and shake occasionally for 2 hour. After cooling to room temperature, bring the volume to 500 ml with distilled water and remix. Filter through two Whatman No. 2 filter papers into flask and mix solution thoroughly (discard the residue). Then transfer 25 ml of the filtrate into a 50 ml volumetric flask then add 2.5 ml sulfanilamide reagent, mix thoroughly. • 5. After setting for 5 min, add 2.5 ml NED reagent, mix. Dilute to volume with distilled water, mix and set for another 15 min to let the color develop. • 6. Transfer a portion of the solution to the cuvette and read absorbance at 540 nm against a blank of 45 ml distilled water+2.5 ml sulfanilamide reagent+2.5 ml NED reagent.
• 1. Pipette 0.5 mL of plasma (or serum) to a 12×75 mm polypropylene tube. Place the tube in ice. • 2. Add 0.5 mL of […] to the tube (the tube remains in ice). • 3. Mix the tube well (using a vortex). • 4. After 2 min, add 0.25 mL of 2 M K2CO3 to the tube (the tube remains in ice). • 5.

[3] = Low (1000 ppm) L-arginine, 8 days post thermal processing
[4] = Low (1000 ppm) L-arginine, one day after thermal processing

## N=C(N)NCCC[C@H](N)C(=O)O [L-arginine]
[1]; 10% L-arginine brine (formulated for 1500 ppm L-arginine)
  Nitrite Pellet: 72.31^a ppm
[1]; 10% L-arginine brine
  Nitrite Supernatant: 33.48^a ppm
[1]; 15% L-arginine brine (formulated for 1500 ppm L-arginine)
  Nitrite Pellet: 53.12^ab ppm
[1]; 15% L-arginine brine
  Nitrite Supernatant: 36.50^a ppm
[1]; 20% L-arginine brine (formulated for 1500 ppm L-arginine)
  Nitrite Pellet: 59.52^ab ppm
[1]; 20% L-arginine brine
  Nitrite Supernatant: 40.80^a ppm
[1]; 25% L-arginine brine (formulated for 1500 ppm L-arginine)
  Nitrite Pellet: 59.63^ab ppm
[1]; 25% L-arginine brine
  Nitrite Supernatant: 35.34^a ppm
[1]; range of averages over brine additions 10-25%
  residual nitrite in the cooked meat pellet: 53.12 to 72.30 ppm
NOS system; High (5000 ppm) L-arginine, one day after thermal processing
  Total Heme: 22.21^a ppm
NOS system; [3]
  NO-Heme: 12.95^a ppm
  Nitrosylation: 45.28^a %
NOS system; [4]
  NO-Heme: 8.21^a ppm
  Total Heme: 22.21^a ppm
NOS system; from the low to high concentrations, one day after thermal processing
  nitrosylation percentage: 37 to 60%
NOS system; high concentration (5000 ppm) L-arginine
  cured color (FIG. 8): pink cured color formation
NOS system; low concentration (1000 ppm) L-arginine
  cured color (FIG. 8): slight cured color
[2]; 2 mM L-arginine, cooked pellet
  Residual Nitrite: 10.46 ppm and 10.46^a ppm
[2]; 2 mM L-arginine, cooked supernatant
  Residual Nitrite: 5.81 ppm and 5.81^ab ppm
[2]; 2 mM L-arginine, raw supernatant, stored 3 weeks at -30° C.
  Residual Nitrite: 4.53^b ppm
[2]; 4 mM L-arginine, cooked pellet
  Residual Nitrite: 9.35 ppm and 9.35^a ppm
[2]; 4 mM L-arginine, cooked supernatant
  Residual Nitrite: 8.79 ppm and 8.79^a ppm
[2]; 4 mM L-arginine, raw supernatant, stored 3 weeks at -30° C.
  Residual Nitrite: 8.00 ppm and 8.00^ab ppm
[2]; 8 mM L-arginine, cooked pellet
  Residual Nitrite: 11.22 ppm and 11.22^a ppm
[2]; 8 mM L-arginine, cooked supernatant
  Residual Nitrite: 5.85 ppm and 5.85^ab ppm
[2]; 8 mM L-arginine, raw supernatant, stored 3 weeks at -30° C.
  Residual Nitrite: 9.66 ppm and 9.66^ab ppm
[2]; 16 mM L-arginine, cooked pellet
  Residual Nitrite: 14.06 ppm and 14.06^a ppm
[2]; 16 mM L-arginine, cooked supernatant
  Residual Nitrite: 3.19 ppm and 3.19^ab ppm
[2]; 16 mM L-arginine, raw supernatant, stored 3 weeks at -30° C.
  Residual Nitrite: 9.23 ppm and 9.23^ab ppm
[2]; 32 mM L-arginine, cooked pellet
  Residual Nitrite: 15.69 ppm and 15.69^a ppm
[2]; 32 mM L-arginine, cooked supernatant
  Residual Nitrite: 7.86 ppm and 7.86^ab ppm
[2]; 32 mM L-arginine, raw supernatant, stored 3 weeks at -30° C.
  Residual Nitrite: 14.34 ppm and 14.34^a ppm
